In US11066416B2, “Rapafucin derivative compounds and methods of use thereof” (The Johns Hopkins University, priority 2016, dated 2021):
pIC50: −log10 of the molar value.

Tests used:
Type in all cases: cell-based
[1] = system: specific cell lines indicated in each assay; test: Cell proliferation assay (Prolif.), IC50 or single concentration, cell line as indicated in each table; details: A549 cells; for Prolif, A549: Table 10; for Rel. Prolif., A549: single concentration, response relative to DMSO
Procedure: (§1) Cell Proliferation Assay (Prolif.) Guo et al. (2018) Nat. Chem. 11:254-63. Specific cell lines are indicated in each assay and cultured in complete growth media. Activity is scored according to the IC50 values relative to DMSO control. “Low” indicates an IC50 greater than 600 nM, “Medium” indicates an IC50 between 300 nM and 600 nM “High” indicates an IC50 less than 300 nM. “Rel.Uptake” refers to uptake activity characterization relative to a single concentration assay. “Low” indicates a response greater than 0.6 times the activity relative to DMSO, “Medium” indicates a response between 0.6 and 0.3 times the activity relative to DMSO, “High” indicates a response less than 0.3 times the activity relative to DMSO.

H929 = test: Cell proliferation assay (Prolif.), H929; details: for Prolif. H929: H929 cells, IC50 class relative to DMSO control; for Rel. Prolif., NCI-H929: NCI-H929 cells, single concentration, response relative to DMSO
Procedure: as §1

[2] = system: nucleoside uptake (3H-Thymidine); test: Rel.Uptake: nucleoside uptake, single concentration assay, cell line as indicated in each table; details: 293T, nucleoside uptake, response relative to DMSO
Procedure: Nucleoside Uptake Assay (uptake). Nuceloside uptake assays were performed with using 3H-Thymidine as described in Guo et al. (2018) Nat. Chem. 11:254-63. Specific cell lines are indicated in each assay and cultured in complete growth media. Activity is scored according to the IC50 values relative to DMSO control. “Low” indicates an IC50 greater than 600 nM, “Medium” indicates an IC50 between 300 nM and 600 nM “High” indicates an IC50 less than 300 nM. “Rel.Uptake” refers to uptake activity characterization relative to a single concentration assay. “Low” indicates a response greater than 0.6 times the activity relative to DMSO, “Medium” indicates a response between 0.6 and 0.3 times the activity relative to DMSO, “High” indicates a response less than 0.3 times the activity relative to DMSO.

| Compound | Prolif, A549 [1] | Rel. Prolif., A549 [1] | further results |
| --- | --- | --- | --- |
| CCCC[C@H]1C(=O)N[C@@H](Cc2ccc3ccccc3c2)C(=O)N(C)[C@@H](COC(C)(C)C)C(=O)NCC(=O)N(C)CCC=CC(=O)OCC(C)(C)C(=O)C(=O)N2CCCC[C@H]2C(=O)O[C@H](CCc2cc(OC)c(OC)c(OC)c2)c2cccc(c2)OCC(=O)N1C [Compound 560] | medium | medium | – |
| CCCC[C@H]1C(=O)N[C@@H](Cc2ccc3ccccc3c2)C(=O)N(C)[C@@H](COC(C)(C)C)C(=O)NCC(=O)N(C)CCC=CC(=O)OCC(C)(C)C(=O)C(=O)N2CCCC[C@H]2C(=O)O[C@H](CCc2ccc(OC)c(OC)c2OC)c2cccc(c2)OCC(=O)N1C [Compound 561] | medium | medium | – |
| CCCC[C@H]1C(=O)N[C@@H](Cc2ccc3ccccc3c2)C(=O)N(C)[C@@H](COC(C)(C)C)C(=O)NCC(=O)N(C)CCC=CC(=O)OCC(C)(C)C(=O)C(=O)N2CCCC[C@H]2C(=O)O[C@H](CCc2cc(OC)c(OC)cc2OC)c2cccc(c2)OCC(=O)N1C [Compound 562] | medium | medium | – |
| CCCC[C@H]1C(=O)N[C@@H](Cc2ccc3ccccc3c2)C(=O)N(C)[C@@H](COC(C)(C)C)C(=O)NCC(=O)N(C)CCC=CC(=O)OCC(C)(C)C(=O)C(=O)N2CCCC[C@H]2C(=O)O[C@H](CCc2cc(OC)cc(OC)c2OC)c2cccc(c2)OCC(=O)N1C [Compound 563] | low | low | – |
| CCCC[C@H]1C(=O)N[C@@H](Cc2ccc3ccccc3c2)C(=O)N(C)[C@@H](COC(C)(C)C)C(=O)NCC(=O)N(C)CCC=CC(=O)OCC(C)(C)C(=O)C(=O)N2CCCC[C@H]2C(=O)O[C@H](CCc2c(OC)ccc(OC)c2OC)c2cccc(c2)OCC(=O)N1C [Compound 564] | low | low | – |
| CCCC[C@H]1C(=O)N[C@@H](Cc2ccc3ccccc3c2)C(=O)N(C)[C@@H](COC(C)(C)C)C(=O)NCC(=O)N(C)CCC=CC(=O)OCC(C)(C)C(=O)C(=O)N2CCCC[C@H]2C(=O)O[C@H](CCc2ccc(OC)c(OC)c2O)c2cccc(c2)OCC(=O)N1C [Compound 565] | medium | medium | – |
| CCCC[C@H]1C(=O)N[C@@H](Cc2ccc3ccccc3c2)C(=O)N(C)[C@@H](COC(C)(C)C)C(=O)NCC(=O)N(C)CCC=CC(=O)OCC(C)(C)C(=O)C(=O)N2CCCC[C@H]2C(=O)O[C@H](CCc2cc(O)c(OC)c(OC)c2)c2cccc(c2)OCC(=O)N1C [Compound 566] | medium | medium | – |
| CCCC[C@H]1C(=O)N[C@@H](Cc2ccc3ccccc3c2)C(=O)N(C)[C@@H](COC(C)(C)C)C(=O)NCC(=O)N(C)CCC=CC(=O)OCC(C)(C)C(=O)C(=O)N2CCCC[C@H]2C(=O)O[C@H](CCc2cc(OC)c(OC)cc2O)c2cccc(c2)OCC(=O)N1C [Compound 567] | medium | medium | – |
| CCCC[C@H]1C(=O)N[C@@H](Cc2ccc3ccccc3c2)C(=O)N(C)[C@@H](COC(C)(C)C)C(=O)NCC(=O)N(C)CCC=CC(=O)OCC(C)(C)C(=O)C(=O)N2CCCC[C@H]2C(=O)O[C@H](CCc2cc(F)c(OC)c(OC)c2)c2cccc(c2)OCC(=O)N1C [Compound 568] | medium | medium | – |
| CCCC[C@H]1C(=O)N[C@@H](Cc2ccc3ccccc3c2)C(=O)N(C)[C@@H](COC(C)(C)C)C(=O)NCC(=O)N(C)CCC=CC(=O)OCC(C)(C)C(=O)C(=O)N2CCCC[C@H]2C(=O)O[C@H](CCc2cc(OC)c(OC)cc2F)c2cccc(c2)OCC(=O)N1C [Compound 569] | medium | medium | – |
| CCCC[C@H]1C(=O)N[C@@H](Cc2ccc3ccccc3c2)C(=O)N(C)[C@@H](COC(C)(C)C)C(=O)NCC(=O)N(C)CCC=CC(=O)OCC(C)(C)C(=O)C(=O)N2CCCC[C@H]2C(=O)O[C@H](CCc2ccc(OC)c(OC)c2F)c2cccc(c2)OCC(=O)N1C [Compound 570] | medium | medium | – |
| CCCC[C@H]1C(=O)N[C@@H](Cc2ccc3ccccc3c2)C(=O)N(C)[C@@H](COC(C)(C)C)C(=O)NCC(=O)N(C)CCC=CC(=O)OCC(C)(C)C(=O)C(=O)N2CCN(C(=O)OCC3c4ccccc4-c4ccccc43)C[C@H]2C(=O)O[C@H](CCc2ccc(OC)c(OC)c2)c2cccc(c2)OCC(=O)N1C [Compound 571] | low | low | – |
| CCCC[C@H]1C(=O)N[C@@H](Cc2ccc3ccccc3c2)C(=O)N(C)[C@@H](COC(C)(C)C)C(=O)NCC(=O)N(C)CCC=CC(=O)OCC(C)(C)C(=O)C(=O)N2CCN(C)C[C@H]2C(=O)O[C@H](CCc2ccc(OC)c(OC)c2)c2cccc(c2)OCC(=O)N1C [Compound 572] | medium | medium | – |
| CCCC[C@H]1C(=O)N[C@@H](Cc2ccc3ccccc3c2)C(=O)N(C)[C@@H](COC(C)(C)C)C(=O)NCC(=O)N(C)CCC=CC(=O)OCC(C)(C)C(=O)C(=O)N2CCCC[C@H]2C(=O)O[C@H](CCc2ccc(OC)c(OC)c2)c2cc(ccc2F)OCC(=O)N1C [Compound 573] | low | low | – |
| CCCC[C@H]1C(=O)N[C@@H](Cc2ccc3ccccc3c2)C(=O)N(C)[C@@H](COC(C)(C)C)C(=O)NCC(=O)N(C)CCC=CC(=O)OCC(C)(C)C(=O)C(=O)N2CCCC[C@H]2C(=O)O[C@H](CCc2ccc(OC)c(OC)c2)c2cc(F)cc(c2)OCC(=O)N1C [Compound 574] | low | low | – |
| CCCC[C@H]1C(=O)N[C@@H](Cc2ccc3ccccc3c2)C(=O)N(C)[C@@H](COC(C)(C)C)C(=O)NCC(=O)N(C)CCC=CC(=O)OCC(C)(C)C(=O)C(=O)N2CCCC[C@H]2C(=O)O[C@H](CCc2ccc(OC)c(OC)c2)c2ccc(F)c(c2)OCC(=O)N1C [Compound 576] | medium | medium | – |
| COc1ccc(CC[C@H]2OC(=O)[C@@H]3CCCCN3C(=O)C(=O)C(C)(C)COC(=O)C=CCCN(C)C(=O)[C@@H](Cc3ccccc3)NC(=O)CN(C)C(=O)[C@@H](Cc3ccccc3)NC(=O)[C@H](Cc3ccc(OC(=O)N4CCOCC4)cc3)N(C)C(=O)COc3cccc2c3F)cc1OC [Compound 867] | – | – | Prolif. H929 (H929): low; Rel. Prolif., NCI-H929 (H929): low |
| COc1ccc(CC[C@H]2OC(=O)[C@@H]3CCCCN3C(=O)C(=O)C(C)(C)COC(=O)C=CCCN(C)C(=O)[C@@H](Cc3ccccc3)NC(=O)CN(C)C(=O)[C@@H](Cc3ccccc3)NC(=O)[C@H](Cc3ccc(OC(=O)N4CCOCC4)cc3)N(C)C(=O)COc3cc(F)cc2c3)cc1OC [Compound 868] | – | – | Prolif. H929 (H929): low; Rel. Prolif., NCI-H929 (H929): low |
| COc1ccc(CC[C@H]2OC(=O)[C@@H]3CCCCN3C(=O)C(=O)C(C)(C)COC(=O)C=CCCN(C)C(=O)[C@@H](Cc3ccccc3)NC(=O)CN(C)C(=O)[C@@H](Cc3ccccc3)NC(=O)[C@H](Cc3ccc(OC(=O)N4CCOCC4)cc3)N(C)C(=O)CCC(=O)Nc3cccc2c3)cc1OC [Compound 869] | – | – | Prolif. H929 (H929): low; Rel. Prolif., NCI-H929 (H929): low |
| COc1ccc(CC[C@H]2OC(=O)[C@@H]3CCCCN3C(=O)C(=O)C(C)(C)COC(=O)C=CCCN(C)C(=O)[C@@H](Cc3ccccc3)NC(=O)CN(C)C(=O)[C@@H](Cc3ccccc3)NC(=O)[C@H](Cc3ccc(OC(=O)N4CCOCC4)cc3)NC(=O)COc3cccc2c3)cc1OC [Compound 877] | – | – | Prolif. H929 (H929): low; Rel. Prolif., NCI-H929 (H929): kmv |
| CCCC[C@H]1C(=O)N[C@@H](Cc2ccc3ccccc3c2)C(=O)N(C)[C@@H](COC(C)(C)C)C(=O)NCC(=O)N(C)CCC=CC(=O)OCC(C)(C)C(=O)C(=O)N2CCCC[C@H]2C(=O)O[C@H](CCc2ccc(OC)c(OC)c2)c2cccc(c2F)OCC(=O)N1C [Compound 1563] | high | – | Rel. Uptake, 293T [2]: high |
| CCCC[C@H]1C(=O)N[C@@H](Cc2ccc3ccccc3c2)C(=O)N(C)[C@@H](COC(C)(C)C)C(=O)NCC(=O)N(C)CCC=CC(=O)OCC(C)(C)C(=O)C(=O)N2CCCC[C@H]2C(=O)O[C@H](CCc2ccc(OC)c(O)c2)c2cccc(c2)OCC(=O)N1C [Compound 1564] | high | – | Rel. Uptake, 293T [2]: high |
| CCCC[C@H]1C(=O)N[C@@H](Cc2ccc3ccccc3c2)C(=O)N(C)[C@@H](COC(C)(C)C)C(=O)NCC(=O)N(C)CCC=CC(=O)OCC(C)(C)C(=O)C(=O)N2CCCC[C@H]2C(=O)O[C@H](CCc2ccc(OC)c(OC)c2)c2cncc(c2)OCC(=O)N1C [Compound 1565] | low | – | Rel. Uptake, 293T [2]: low |
| CC[C@H](C)[C@H]1C(=O)NCC(=O)N(C)CC/C=C\C(=O)OCC(C)(C)C(=O)C(=O)N2CCCC[C@H]2C(=O)O[C@H](CCc2ccc(OC)c(OC)c2)c2cccc(c2)NC(=O)CCC(=O)N(C)[C@@H](CC(C)C)C(=O)N[C@H](Cc2ccccc2)C(=O)N1C [Compound 1592] | – | – | Rel. Uptake, 293T [2]: Low (“Low” indicates a response greater than 0.6 times the activity relative to DMSO); pIC50 ([1]; Homo sapiens, Table 17): > 6.52 |
